One assay relates to β-catenin. As to the kind of experiment: NL-20 β-catenin reporter assay (primary screening assay for IPF). The format is cell-based. As to conditions: transformed human bronchial epithelial cell line NL-20. From the text: Compounds of Formulas (I) or (II) were screened in a β-catenin-based reporter assay in a transformed human bronchial epithelial cell line (NL-20).
Background: In a reporter assay the amount or activity of a reporter protein is the signal.

The next assay concerns Wnt pathway. As to the kind of experiment: Wnt activity reporter assay (SP5 promoter-luciferase in SW480 cells). It is filed as cell-based. As to conditions: Homo sapiens, SP5 promoter firefly luciferase reporter, read-out: Wnt inhibition. Summed up: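 SW480 cells stably carrying an SP5 promoter (eight TCF/LEF sites)-firefly luciferase reporter were seeded at ~10,000 per well and given half-log compound dilutions from a 10 µM top concentration.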

This is an account of results in patent US10071086B2, “1H-pyrazolo[3,4-b]pyridines and therapeutic uses thereof” (Samumed, LLC, priority 2012, dated 2018).

As for `Nc1cncc(-c2cnc3[nH]nc(-c4nc5c(-c6cccc(F)c6)cncc5[nH]4)c3c2)c1` [Compound 5, 5-(3-(7-(3-Fluorophenyl)-3H-imidazo[4,5-c]pyridin-2-yl)-1H-pyrazolo[3,4-b]pyridin-5-yl)pyridin-3-amine], the IC50 in the assay with β-catenin (NL20) was found to be 175 nM; in the assay on Wnt pathway, 3.9 nM. Taken in the same sequence, the figures for `CN(C)c1cncc(-c2cnc3[nH]nc(-c4nc5c(-c6cccc(F)c6)cncc5[nH]4)c3c2)c1` [Compound 7, 5-(3-(7-(3-Fluorophenyl)-3H-imidazo[4,5-c]pyridin-2-yl)-1H-pyrazolo[3,4-b]pyridin-5-yl)-N,N-dimethylpyridin-3-amine] were 1900 nM and 6 nM. In the same order, the values of `CC(C)Nc1cncc(-c2cnc3[nH]nc(-c4nc5c(-c6cccc(F)c6)cncc5[nH]4)c3c2)c1` [Compound 9, 5-(3-(7-(3-Fluorophenyl)-3H-imidazo[4,5-c]pyridin-2-yl)-1H-pyrazolo[3,4-b]pyridin-5-yl)-N-isopropylpyridin-3-amine] are 67 nM and 1.2 nM.

For `CN1CCN(Cc2cc(F)cc(-c3cncc4[nH]c(-c5n[nH]c6ncc(-c7cccnc7)cc56)nc34)c2)CC1` [Compound 10, 3-(7-(3-Fluoro-5-((4-methylpiperazin-1-yl)methyl)phenyl)-3H-imidazo[4,5-c]pyridin-2-yl)-5-(pyridin-3-yl)-1H-pyrazolo[3,4-b]pyridine], the IC50 turned out to be 247 nM in the assay with β-catenin (NL20) and 263 nM with Wnt pathway. In the same order, the values of `CN1CCN(c2cc(F)cc(-c3cncc4[nH]c(-c5n[nH]c6ncc(-c7cccnc7)cc56)nc34)c2)CC1` [Compound 11, 3-(7-(3-Fluoro-5-(4-methylpiperazin-1-yl)phenyl)-3H-imidazo[4,5-c]pyridin-2-yl)-5-(pyridin-3-yl)-1H-pyrazolo[3,4-b]pyridine] are 210 nM and 99 nM. Consider `CN(C)CCNc1cc(F)cc(-c2cncc3[nH]c(-c4n[nH]c5ncc(-c6cccnc6)cc45)nc23)c1` [Compound 12, N1-(3-Fluoro-5-(2-(5-(pyridin-3-yl)-1H-pyrazolo[3,4-b]pyridin-3-yl)-3H-imidazo[4,5-c]pyridin-7-yl)phenyl)-N2,N2-dimethylethane-1,2-diamine], for which the IC50 in the assay with β-catenin (NL20) was found to be 310 nM; with Wnt pathway, 21 nM.

Consider `CN(C)Cc1cc(F)cc(-c2cncc3[nH]c(-c4n[nH]c5ncc(-c6cccnc6)cc45)nc23)c1` [Compound 14, 1-(3-Fluoro-5-(2-(5-(pyridin-3-yl)-1H-pyrazolo[3,4-b]pyridin-3-yl)-3H-imidazo[4,5-c]pyridin-7-yl)phenyl)-N,N-dimethylmethanamine], for which the IC50 with β-catenin (NL20) is 2030 nM; in the assay on Wnt pathway, 138 nM. Taken in the same sequence, the figures for `CN(C)Cc1cncc(-c2cnc3[nH]nc(-c4nc5c(-c6cccc(F)c6)cncc5[nH]4)c3c2)c1` [Compound 18, 1-(5-(3-(7-(3-Fluorophenyl)-3H-imidazo[4,5-c]pyridin-2-yl)-1H-pyrazolo[3,4-b]pyridin-5-yl)pyridin-3-yl)-N,N-dimethylmethanamine] were 440 nM and 13 nM. In the same order, the values of `CN(C)Cc1cncc(-c2cnc3[nH]nc(-c4nc5c(-c6cccs6)cncc5[nH]4)c3c2)c1` [Compound 452, N,N-Dimethyl-1-(5-(3-(7-(thiophen-2-yl)-3H-imidazo[4,5-c]pyridin-2-yl)-1H-pyrazolo[3,4-b]pyridin-5-yl)pyridin-3-yl)methanamine] are 1090 nM and 48 nM. For `c1cncc(-c2cnc3[nH]nc(-c4nc5c(-c6cccs6)cccc5[nH]4)c3c2)c1` [Compound 888, 5-(Pyridin-3-yl)-3-(4-(thiophen-2-yl)-1H-benzo[d]imidazol-2-yl)-1H-pyrazolo[3,4-b]pyridine], the IC50 in the assay on Wnt pathway came out at 12 nM. Still for that read-out and setting: the value for `c1csc(-c2cccc3[nH]c(-c4n[nH]c5ncc(-c6cncc(CN7CCCC7)c6)cc45)nc23)c1` [Compound 898, 5-(5-(Pyrrolidin-1-ylmethyl)pyridin-3-yl)-3-(4-(thiophen-2-yl)-1H-benzo[d]imidazol-2-yl)-1H-pyrazolo[3,4-b]pyridine] was 120 nM. Turning to `O=C1C(Cc2ccc(O)cc2)N2C(=O)CCN(C(=O)NCc3ccccc3)C2CN1Cc1cccc2ccccc12` (stereo not drawn) [ICG-001, reference compound], the IC50 in the assay with β-catenin worked out at 7000 nM.
